# According to patent publication US20250129430A1, “HIGH ATP-AFFINITY PROTEIN AS THERAPEUTIC TARGET FOR INTRACTABLE CANCER MOLECULAR SUBTYPES AND INHIBITOR THEREOF” (VeraVerse Co., Ltd., priority 2021, published 2025):
# Counter-ions that a name gives are not always drawn.
# Experiments:
# Assay type in all cases: cell-based, human
# FU97 = assay: Cell viability drug screen, 12-point dose-response AUC; parameters: Average Area Under the Viability Curve (AUC), AUC norm value: scale not given here; conditions: FU97 cells, 72 hours; for area under the viability curve (AUC), normalized: 12-point dose-response
# Method in brief: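 Trapezoidal AUC of a 12-point, DMSO-normalized dose-response curve. Luminescent viability was measured after 72 h of exposure at 37° C to half-log serial dilutions (0.5% DMSO control), dosed 24 h after plating FU97 cells at 5×10^3 per well.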
# SNU601 = assay: as above; conditions: SNU601 cells, 72 hours; for area under the viability curve (AUC), normalized: 12-point dose-response
# Method in brief: (§1)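 Viability: luminescence (Glo kit, 15 min RT), normalized to 0.5% DMSO vehicle. Dosing: half-log, 12 concentrations, 72 h. Cells: 5×10^3/well, treated 24 h after plating. Value: trapezoidal AUC, mean of repeats.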
# KATO3 = assay: as above; conditions: KATO3 cells, 72 hours; for area under the viability curve (AUC), normalized: 12-point dose-response
# Method in brief: as §1
# SNU668 = assay: as above; conditions: 72 hours; for area under the viability curve (AUC), normalized: SNU668 cells, 12-point dose-response
# Method in brief: as §1
# YCC11 = assay: as above; conditions: 72 hours; for area under the viability curve (AUC), normalized: YCC11 cells, 12-point dose-response
# Method in brief: as §1
# SK4 = assay: as above; conditions: 72 hours; for area under the viability curve (AUC), normalized: SK4 cells, 12-point dose-response
# Method in brief: as §1
# SNU719 = assay: as above; conditions: SNU719 cells, 72 hours; for area under the viability curve (AUC), normalized: 12-point dose-response
# Method in brief: (§2)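 AUC comes from 12-point half-log dose–response curves, normalized to DMSO-treated cells and integrated trapezoidally, repeats averaged. Luminescent viability read after 72 h compound exposure at 37 °C; cells plated 5×10^3 per well 24 h before dosing.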
# NCC19 = assay: as above; conditions: NCC19 cells, 72 hours; for area under the viability curve (AUC), normalized: 12-point dose-response
# Method in brief: as §1
# YCC2 = assay: as above; conditions: YCC2 cells, 72 hours; for area under the viability curve (AUC), normalized: 12-point dose-response
# Method in brief: as §1
# NCC20 = assay: as above; conditions: NCC20 cells, 72 hours; for area under the viability curve (AUC), normalized: 12-point dose-response
# Method in brief: as §1
# NCC24 = assay: as above; conditions: NCC24 cells, 72 hours; for area under the viability curve (AUC), normalized: 12-point dose-response
# Method in brief: as §1
# SNU620 = assay: as above; conditions: SNU620 cells, 72 hours; for area under the viability curve (AUC), normalized: 12-point dose-response
# Method in brief: as §1
# YCC3 = assay: as above; conditions: YCC3 cells, 72 hours; for area under the viability curve (AUC), normalized: 12-point dose-response
# Method in brief: as §1
# SNU484 = assay: as above; conditions: 72 hours; for area under the viability curve (AUC), normalized: SNU484 cells, 12-point dose-response
# Method in brief: as §1
# MKN74 = assay: as above; conditions: MKN74 cells, 72 hours; for area under the viability curve (AUC), normalized: 12-point dose-response
# Method in brief: as §2
# SNU16 = assay: as above; conditions: SNU16 cells, 72 hours; for area under the viability curve (AUC), normalized: 12-point dose-response
# Method in brief: as §1
# MKN1 = assay: as above; conditions: MKN1 cells, 72 hours; for area under the viability curve (AUC), normalized: 12-point dose-response
# Method in brief: as §1
# SNU1750 = assay: as above; conditions: 72 hours; for area under the viability curve (AUC), normalized: SNU1750 cells, 12-point dose-response
# Method in brief: as §1
# SNU216 = assay: as above; conditions: 72 hours; for area under the viability curve (AUC), normalized: SNU216 cells, 12-point dose-response
# Method in brief: as §2
# MKN28 = assay: as above; conditions: MKN28 cells, 72 hours; for area under the viability curve (AUC), normalized: 12-point dose-response
# Method in brief: as §1
# SNU1967 = assay: as above; conditions: SNU1967 cells, 72 hours; for area under the viability curve (AUC), normalized: 12-point dose-response
# Method in brief: as §1
# SNU1 = assay: as above; conditions: SNU1 cells, 72 hours; for area under the viability curve (AUC), normalized: 12-point dose-response
# Method in brief: as §1
# SNU638 = assay: as above; conditions: SNU638 cells, 72 hours; for area under the viability curve (AUC), normalized: 12-point dose-response
# Method in brief: as §1
# Hs746T = assay: as above; conditions: 72 hours; for area under the viability curve (AUC), normalized: Hs746T cells, 12-point dose-response
# Method in brief: as §1
# MKN45 = assay: as above; conditions: 72 hours; for area under the viability curve (AUC), normalized: MKN45 cells, 12-point dose-response
# Method in brief: as §2
# NCI_N87 = assay: as above; conditions: NCI_N87 cells, 72 hours; for area under the viability curve (AUC), normalized: 12-point dose-response
# Method in brief: as §1
# AGS = assay: as above; conditions: 72 hours; for area under the viability curve (AUC), normalized: AGS cells, 12-point dose-response
# Method in brief: as §2
# NCC59 = assay: as above; conditions: NCC59 cells, 72 hours; for area under the viability curve (AUC), normalized: 12-point dose-response
# Method in brief: as §1
# OCUM1 = assay: as above; conditions: OCUM1 cells, 72 hours; for area under the viability curve (AUC), normalized: 12-point dose-response
# Method in brief: as §1
# [1] = system: non-SEM-type gastric cancer cell line; assay: Cell viability drug screen, AUC summary over non-SEM-type lines; conditions: in the non-SEM-type gastric cancer cell line
structure (smiles),measurement,setting,value
Nc1cc(C(F)(F)F)c(-c2cc(N3CCOCC3)nc(N3CCOCC3)n2)cn1 [BKM120],"area under the viability curve (AUC), normalized",FU97,−1.3007
same,"area under the viability curve (AUC), normalized",SNU601,0.9711
same,"area under the viability curve (AUC), normalized",KATO3,2.449
same,"area under the viability curve (AUC), normalized",SNU668,0.2688
same,"area under the viability curve (AUC), normalized",YCC11,−1.147
same,"area under the viability curve (AUC), normalized",SK4,−1.247
same,"area under the viability curve (AUC), normalized",SNU719,3.314
same,"area under the viability curve (AUC), normalized",NCC19,0.6866
same,"area under the viability curve (AUC), normalized",YCC2,0.7169
same,"area under the viability curve (AUC), normalized",NCC20,−0.07502
same,"area under the viability curve (AUC), normalized",NCC24,−0.4391
same,"area under the viability curve (AUC), normalized",SNU620,−0.08823
same,"area under the viability curve (AUC), normalized",YCC3,1.085
same,"area under the viability curve (AUC), normalized",SNU484,−0.475
same,"area under the viability curve (AUC), normalized",MKN74,−0.05182
same,"area under the viability curve (AUC), normalized",SNU16,−0.3076
same,"area under the viability curve (AUC), normalized",MKN1,−0.1827
same,"area under the viability curve (AUC), normalized",SNU1750,−0.4392
same,"area under the viability curve (AUC), normalized",SNU216,0.1342
same,"area under the viability curve (AUC), normalized",MKN28,−0.0925
same,"area under the viability curve (AUC), normalized",SNU1967,0.676
same,"area under the viability curve (AUC), normalized",SNU1,0.2556
same,"area under the viability curve (AUC), normalized",SNU638,0.01503
same,"area under the viability curve (AUC), normalized",Hs746T,0
same,"area under the viability curve (AUC), normalized",MKN45,1.074
same,"area under the viability curve (AUC), normalized",NCI_N87,−0.38
same,"area under the viability curve (AUC), normalized",AGS,−1.094
same,"area under the viability curve (AUC), normalized",NCC59,1.23
same,"area under the viability curve (AUC), normalized",OCUM1,0.7561
same,AUC value,[1],high
"CN(C)c1ccc(C(=C2C=CC(=[N+](C)C)C=C2)c2ccc(N(C)C)cc2)cc1 [Crystal Violet, Crystal violet]","area under the viability curve (AUC), normalized",FU97,−0.985
same,"area under the viability curve (AUC), normalized",SNU601,0.9442
same,"area under the viability curve (AUC), normalized",KATO3,0.911
same,"area under the viability curve (AUC), normalized",SNU668,0.1937
same,"area under the viability curve (AUC), normalized",YCC11,−0.8996
same,"area under the viability curve (AUC), normalized",SK4,−1.015
same,"area under the viability curve (AUC), normalized",SNU719,3.076
same,"area under the viability curve (AUC), normalized",NCC19,0.4873
same,"area under the viability curve (AUC), normalized",YCC2,0.4289
same,"area under the viability curve (AUC), normalized",NCC20,−1.031
same,"area under the viability curve (AUC), normalized",NCC24,0.2743
same,"area under the viability curve (AUC), normalized",SNU620,−0.7672
same,"area under the viability curve (AUC), normalized",YCC3,0.9437
same,"area under the viability curve (AUC), normalized",SNU484,−0.7108
same,"area under the viability curve (AUC), normalized",MKN74,−0.5721
same,"area under the viability curve (AUC), normalized",SNU16,−0.5668
same,"area under the viability curve (AUC), normalized",MKN1,0.4211
same,"area under the viability curve (AUC), normalized",SNU1750,−0.5514
same,"area under the viability curve (AUC), normalized",SNU216,−0.02818
same,"area under the viability curve (AUC), normalized",MKN28,0
same,"area under the viability curve (AUC), normalized",SNU1967,0.3458
same,"area under the viability curve (AUC), normalized",SNU1,−0.5355
same,"area under the viability curve (AUC), normalized",SNU638,−0.4956
same,"area under the viability curve (AUC), normalized",Hs746T,−0.2085
same,"area under the viability curve (AUC), normalized",MKN45,1.101
same,"area under the viability curve (AUC), normalized",NCI_N87,0.4907
same,"area under the viability curve (AUC), normalized",AGS,−0.4769
same,"area under the viability curve (AUC), normalized",NCC59,0.5098
same,"area under the viability curve (AUC), normalized",OCUM1,0.7741
same,AUC value,[1],high
"CCCCc1oc2ccc(NS(C)(=O)=O)cc2c1C(=O)c1ccc(OCCCN(CCCC)CCCC)cc1 [Dronedarone HCl (Multaq), Dronedarone HCl]","Average Area Under the Viability Curve (AUC), AUC norm value",FU97,0.3807
same,"Average Area Under the Viability Curve (AUC), AUC norm value",SNU601,3.848
same,"Average Area Under the Viability Curve (AUC), AUC norm value",KATO3,0.1721
same,"Average Area Under the Viability Curve (AUC), AUC norm value",SNU668; SNU668 cells (SEM subtype),0.4123
same,"Average Area Under the Viability Curve (AUC), AUC norm value",YCC11; YCC11 cells (SEM subtype),−0.521
same,"Average Area Under the Viability Curve (AUC), AUC norm value",SK4; SK4 cells (SEM subtype),−0.3488
same,"Average Area Under the Viability Curve (AUC), AUC norm value",SNU719,1.291
same,"Average Area Under the Viability Curve (AUC), AUC norm value",NCC19,−0.3711
same,"Average Area Under the Viability Curve (AUC), AUC norm value",YCC2,−0.08246
same,"Average Area Under the Viability Curve (AUC), AUC norm value",NCC20,−0.2985
same,"Average Area Under the Viability Curve (AUC), AUC norm value",NCC24,1.044
same,"Average Area Under the Viability Curve (AUC), AUC norm value",SNU620,−0.3353
same,"Average Area Under the Viability Curve (AUC), AUC norm value",YCC3,0.8816
same,"Average Area Under the Viability Curve (AUC), AUC norm value",SNU484; SNU484 cells (SEM subtype),−0.2497
same,"Average Area Under the Viability Curve (AUC), AUC norm value",MKN74,−1.381
same,"Average Area Under the Viability Curve (AUC), AUC norm value",SNU16,−0.2149
same,"Average Area Under the Viability Curve (AUC), AUC norm value",MKN1,0
same,"Average Area Under the Viability Curve (AUC), AUC norm value",SNU1750; SNU1750 cells (SEM subtype),0.06657
same,"Average Area Under the Viability Curve (AUC), AUC norm value",SNU216; SNU216 cells (non-SEM subtype),0.08211
same,"Average Area Under the Viability Curve (AUC), AUC norm value",MKN28,−0.1927
same,"Average Area Under the Viability Curve (AUC), AUC norm value",SNU1967,0.1919
same,"Average Area Under the Viability Curve (AUC), AUC norm value",SNU1,1.295
same,"Average Area Under the Viability Curve (AUC), AUC norm value",SNU638,−0.5649
same,"Average Area Under the Viability Curve (AUC), AUC norm value",Hs746T; Hs746T cells (SEM subtype),−0.03562
same,"Average Area Under the Viability Curve (AUC), AUC norm value",MKN45; MKN45 cells (non-SEM subtype),0.6772
same,"Average Area Under the Viability Curve (AUC), AUC norm value",NCI_N87,−0.08952
same,"Average Area Under the Viability Curve (AUC), AUC norm value",AGS; AGS cells (non-SEM subtype),−0.6415
same,"Average Area Under the Viability Curve (AUC), AUC norm value",NCC59,0.6769
same,"Average Area Under the Viability Curve (AUC), AUC norm value",OCUM1,0.02571
same,AUC value,[1],high
